For data set [1], the system named is albino hairless guinea pigs Crl:IAF(HA)-hrBR (Outbred). Nature of the data set: Photosafety study: primary irritancy, phototoxicity, contact hypersensitivity, photoallergy. It counts as in vivo, guinea pig. To be noted: single topical administration and UVR; XMP.629 up to 10 mg/mL (1.0%). As for the experimental part: XMP.629 was evaluated for photoallergic potential administered topically to hairless guinea pigs. Primary irritancy, phototoxicity (photoirritancy) and contact hypersensitivity were also evaluated in these studies.
Male CrI:IaF(HA)-hrBR (Outbred) albino hairless guinea pigs were assigned to 7 groups, five guinea pigs per group as outlined below.
XMP.629 was formulated as a gel. The phototoxicity comparator article was 8-methoxypsoralen (8-MOP) in methanol at concentrations of 0.1, 0.3 and 1.0 mg/mL. The contact hypersensitivity and photoallergy comparator article was 3,3′,4′,5′-tetrachlorosalicy/anilide (TCSA) in acetone:corn oil (4:1, v/v) at challenge concentrations of 0 (Vehicle), 10, and 30 mg/mL. The reagent and reagent vehicle were Freund's complete adjuvant (FCA) and sterile water for injection, USP, respectively.
The formulation administration and ultraviolet radiation (UVR) exposure regimens for each group in the study were as follows.
For all phases of the study, test articles, test article vehicles, comparator articles and comparator article vehicles were administered (0.3 ml) using a Hilltop chamber affixed to the guinea pig with dental dam overlaid with a Velcro® wrap for approximately 2.0 hours per administration.
Primary irritancy potential of the test articles and test article vehicles was evaluated in Group 1 guinea pigs. Three chambers (one per formulation dosage) were attached to the dorsal skin along the midline. After the administration period the chamber patches were removed and the application sites were gently wiped.
Cutaneous phototoxicity potential of the test articles and test article vehicles was evaluated in Group 2 guinea pigs. Group 3 guinea pigs were used as a comparator group with elicitation of phototoxicity with 8-MOP. Three chambers (one per formulation dosage) were attached to the dorsal skin along the midline and occluded. After the administration period the chamber patches were removed and the application sites were gently wiped. After wiping, Group 2 and 3 guinea pigs were exposed to solar-simulated UVR for approximately 2.25 hours.
For induction of contact hypersensitivity and photoallergy, a nuchal area of skin approximately 2.5 cm^2 was defined by intradermal injections with a formulation of sterile water and FCA in guinea pigs in Groups 4 through 7 under isoflurane/oxygen anesthesia. This skin area was then tape stripped five times. Formulations were topically administered via chambers as described in the study design table using one chamber attached to the nuchal area. After removal of the chambers the application sites were gently wiped and the nuchal site of Group 6 and 7 guinea pigs was exposed to UVR as above. Appropriate procedures for guinea pigs (with the exception of injection with FCA) were repeated once daily on Days 3, 5, 8, 10 and 12 of the induction phase.
On Day 22 (contact hypersensitivity and photoallergy challenge), formulations were topically applied to appropriate sites on guinea pigs in Groups 4 through 7 as described above. Three chambers (one per formulation dosage) were attached to the dorsal skin along the midline and occluded. The chambers were then removed and the application sites were gently wiped. Guinea pigs in Groups 6 and 7 were then exposed to UVR as above.
Observations for general appearance and clinical signs were made weekly throughout the study. […] Body weights were recorded at initiation of dosing for each phase, weekly thereafter and at sacrifice. […]

For a further data set, the system named is E. coli. The note with it: for MBC: agent alone.
The test system of a further data set is Staphylococcus aureus. To be noted: for MBC: agent alone.
Data set [2] deals with P. acnes. Put plainly: microbe, parasite or virus in culture. To be noted: Cutibacterium acnes.
Description: An in vitro assessment of antibiotic activity in XMP.629 and various known antibiotics against a representative panel of bacterial strains associated with acne was conducted. A broth dilution methodology was employed using guidelines established by National Committee for Clinical Laboratory Standards (NCCLS) for anaerobic organisms to establish an antibacterial profile for XMP.629. Assays to determine the minimal bactericidal concentrations (MBC) and minimal inhibitory concentration (MIC) were conducted for XMP.629 and other known antibiotics.
Inoculum from a representative panel of bacterial strains associated with acne, such as P. acnes, P. avidum, P. granulosum, and Staphylococcus epidermis was prepared by suspending approximately 5-10 isolated bacterial colonies in pre-reduced MicroScan® Inoculum Water (Dade Behring, Deerfield, Ill.), and growing the bacterial suspension to log phase (approximately 48 hrs). An inoculum of between 1-5×10^6/mL was achieved by adding 100 μL of the suspension to 25 mL Brain Heart Infusion Broth (BHI) (Anaerobe Systems, Morgan Hill, Calif.).
A stock solution of XMP.629 dissolved in water at a concentration of 4.0 mg/mL was prepared. Dilute solutions of XMP.629 at concentrations ranging from about 1.25 to about 160 μg/mL were made in either water or formulation buffer (130 mM sodium chloride, 0.2% P103 (poloxamer 333), and 0.10% EDTA, pH 7.3).
Control tubes containing only water or formulation buffer were prepared for each isolate. Initial growth controls were determined by removing 10 μL from the water control tube and diluting it by 100 fold. From this dilution, 10 μL was used for inoculation and for spreading over the surface onto Laked Blood Agar (LBA) (Anaerobe Systems, Morgan Hill, Calif.) plates. The tubes and plates were incubated in an anaerobic atmosphere at 37° C. for 48 h.
In data set [3] the test system is P. acnes strain (ATCC 6919). To be noted: P. acnes ATCC 6919 passaged in the drug; level of the resistant culture sought/obtained.
Data set [4] relates to P. acnes. Nature of the data set: microbe, parasite or virus in culture. To be noted: Cutibacterium acnes, clindamycin/erythromycin sensitive strain UP2022.
Data set [5] relates to P. acnes. The note with it: strains UPC686 and UP2022; with XMP.629.
A further data set concerns Pseudomonas aeruginosa. Nature of the data set: microbe, parasite or virus in culture. The note with it: read-out: Minimum Inhibitory Concentrations, Pseudomonas aeruginosa 27853.
The test system of a further data set is Escherichia coli. Nature of the data set: microbe, parasite or virus in culture. It counts as cell-based. The note with it: Escherichia coli, Escherichia coli 0111:B4; read-out: Minimum Inhibitory Concentrations. How it is done:
(§1) Acne vulgaris may involve a microbial consortium. Although P. acnes may be a prominent member of such a consortium, other uncharacterized bacteria may also participate. The microbial activity of XMP.629 as an acetate gel as described in Example 5 and other commonly used antibiotics was evaluated against a panel of human pathogens using standardized NCCLS protocols. […] Lesser potency was observed against the gram-negative organisms B. fragilis, B. cepacia, P. mirabilis and S. marcescens, which are often refractory to many antimicrobial compounds.

In a further data set the test system is Serratia marcescens. Put plainly: microbe, parasite or virus in culture. Type of data set: cell-based. The note with it: Serratia marcescens 13880; read-out: Minimum Inhibitory Concentrations. As for the experimental part:
as §1

The subject of another data set is Klebsiella pneumoniae. Put plainly: microbe, parasite or virus in culture. Type of data set: cell-based. To be noted: Klebsiella pneumoniae, read-out: Minimum Inhibitory Concentrations. As for the experimental part:
as §1

The test system of a further data set is Proteus mirabilis. Put plainly: microbe, parasite or virus in culture. Type of data set: cell-based. The note with it: Proteus mirabilis 29852; read-out: Minimum Inhibitory Concentrations. How it is done:
as §1

Another data set has as its system S. aureus. Put plainly: Comparison of XMP.629 with standard topical agents (MIC90/MBC). It counts as cell-based, Staphylococcus aureus. The note with it: Staphylococcus aureus.
The next data set has as its system hemizygous Tg.AC mice. Nature of the data set: Mouse dermal carcinogenicity study (TPA in XMP.629 acetate gel placebo). It counts as in vivo. As for the experimental part:
XMP.629 was evaluated in a dermal carcinogenicity study to determine whether repeated dermal treatment with tetradeconyl phorbol acetate (TPA) in a XMP.629 acetate gel placebo formulation increased the incidence of skin tumors in hemizygous Tg.AC mice. […] Group 1 was treated with XMP.629 acetate gel placebo alone. A sixth group (Group 2) was treated with TPA dissolved in acetone at a dose level of 1.25 μg per 150 μL application and served as a reference standard. The animals were dosed via dermal application three times per week (e.g., Monday, Wednesday and Friday) for 12 consecutive weeks.
All animals were observed twice daily for moribundity and mortality. A hands-on examination was performed weekly at the time the animals were weighed on Day 1 and weekly thereafter. At that time, the animals were examined for clinical evidence of toxicity, carcinogenicity, and/or irritation at the site of application. […] The number of tumors at the site of application (SOA) and non-site of application (non-SOA) was recorded for each animal each week. At the end of the study (Day 85), the surviving animals were euthanized with CO2 asphyxiation. A necropsy was not performed.

For data set [6] the following is noted: 0.3 mg/kg intravenous.
For data set [7] the following is noted: rat, 0.3 mg/kg intravenous.
Description: Whole body autoradiography studies measured the concentration of tritium in tissues at several time points following dosing. From these concentrations, area under the concentration vs. time curve (AUC) was calculated as a measure of overall exposure (see Table 25).

Data on 12 compounds can be found in US20050148495A1, “Methods and materials including for treating acne” (priority 2003, published 2005).

≈ marks a conversion by molar mass, not a printed value. Read-outs that look alike come from different tables or passages of the source. Non-standard residues stand in square brackets, D forms with d. Residues, ends and D or L forms follow the SMILES beside them. d1Nal = N[C@H](Cc1cccc2ccccc12)C(=O)O

Description for S. aureus: Control tubes containing only water or formulation buffer were prepared for each isolate. Initial growth controls were determined by removing 10 μL from the water control tube and diluting it by 100 fold. From this dilution, 10 μL was used for inoculation and for spreading over the surface onto Laked Blood Agar (LBA) (Anaerobe Systems, Morgan Hill, Calif.) plates. The tubes and plates were incubated in an anaerobic atmosphere at 37° C. for 48 h. […] MBC50 and 90 values represent where 50 and 90%, respectively, of the tested strain's MBC values are equal to or less than the indicated concentration.

As to `COc1c2occc2cc2ccc(=O)oc12` [8-MOP, 8-methoxypsoralen, reference compound], the phototoxicity entry in [1] is listed as “produced skin reactions indicative of cutaneous phototoxicity”.
For `CC1(C)S[C@@H]2[C@H](NC(=O)[C@H](N)c3ccccc3)C(=O)N2[C@H]1C(=O)O` [Ampicillin], the “MBC (antibiotic alone)” value was 32 µg/mL (≈ 91.6 µM) against E. coli (E. coli 4104 LF) and 8 µg/mL (≈ 22.9 µM) in the data set on Staphylococcus aureus (Staphylococcus aureus 342U-116).
Turning to `CO/N=C(\C(=O)N[C@@H]1C(=O)N2C(C(=O)O)=C(COC(N)=O)CS[C@H]12)c1ccco1` [Cefuroxime], in the data set with E. coli (E. coli 4104 LF), the “MBC (antibiotic alone)” value is 8 µg/mL (≈ 18.9 µM).
Take `CC(=O)OCC1=C(C(=O)O)N2C(=O)[C@@H](NC(=O)Cc3cccs3)[C@H]2SC1` [Cephalothin]: in the data set on Staphylococcus aureus (Staphylococcus aureus 342U-116), the “MBC (antibiotic alone)” value came out at 1 µg/mL (≈ 2.52 µM).
In the case of `CCC[C@@H]1C[C@@H](C(=O)N[C@@H]([C@H]2O[C@H](SC)[C@H](O)[C@@H](O)[C@H]2O)[C@H](C)Cl)N(C)C1` [Clindamycin], the MIC90 in the data set with P. acnes [2] (read-out: MIC90 of Standard Topical Agents) came out at 16 µg/mL (≈ 37.6 µM). Also, the MIC in the data set with P. acnes [2] (read-out: MIC of clindamycin resistant strains) is above 64 µg/mL; with P. acnes [4], below 1 µg/mL. This compound also had an MIC/MBC in data set [3] above 64 µg/mL. Besides, in the data set on P. acnes [5], the FIC was 2.
For `C[C@H]1c2cccc(O)c2C(=O)C2=C(O)[C@]3(O)C(=O)C(C(N)=O)=C(O)[C@@H](N(C)C)[C@@H]3[C@@H](O)[C@@H]21` [Doxycycline], the MIC is 32 µg/mL (≈ 72 µM) with Pseudomonas aeruginosa; 2 µg/mL (≈ 4.5 µM) in the data set on Escherichia coli; 8 µg/mL (≈ 18 µM) with Serratia marcescens; 32 µg/mL (≈ 72 µM) in the data set with Klebsiella pneumoniae (Klebsiella pneumoniae 19645); 32 µg/mL (≈ 72 µM) in the data set on Klebsiella pneumoniae (Klebsiella pneumoniae 29011); 64 µg/mL (≈ 144 µM) in the data set with Proteus mirabilis.
In the data set on S. aureus, `C/C(=C\C(=O)OCCCCCCCCC(=O)O)C[C@@H]1OC[C@H](C[C@@H]2O[C@H]2[C@@H](C)[C@H](C)O)[C@@H](O)[C@H]1O` [Mupirocin] had an MIC90 of 4 µg/mL (≈ 7.99 µM).
For `CC1COc2c(N3CCN(C)CC3)c(F)cc3c(=O)c(C(=O)O)cn1c23` (stereo not drawn) [Ofloxacin], the “MBC (antibiotic alone)” value in the data set with E. coli (E. coli 4104 LF) is “≦0.125 μg/mL”; with Staphylococcus aureus (Staphylococcus aureus 342U-116), 1 µg/mL (≈ 2.77 µM).
Regarding `CCCCCCCCCCCCCC(=O)O[C@@H]1[C@@H](C)[C@@]2(O)[C@@H](C=C(CO)C[C@]3(O)C(=O)C(C)=C[C@@H]23)[C@@H]2C(C)(C)[C@]12OC(C)=O` [TPA, tetradeconyl phorbol acetate], in the data set on hemizygous Tg.AC mice (10 μg TPA per application, a single female), the tumor development result was “one latent and one actual papilloma”. Further, in the data set on hemizygous Tg.AC mice (20 μg TPA per application), the “tumor development, females” value was 4/4 and the “tumor development, males” value is 2/5. In addition, the tumor development result in the data set on hemizygous Tg.AC mice (2.5 and 5.0 μg per application in XMP.629 acetate gel placebo) was “did not result in tumor development”.
For the compound `CC(C)C[C@@H](NC(=O)[C@H](N)CCCCN)C(=O)N[C@H](Cc1ccccc1)C(=O)N[C@H](CCCNC(=N)N)C(=O)N[C@H](Cc1cccc2ccccc12)C(=O)N[C@H](CCC(N)=O)C(=O)N[C@H](C)C(=O)N[C@H](CCCCN)C(=O)N[C@H](Cc1cccc2ccccc12)C(N)=O` [[^3H]-labeled XMP.629] (H-[dK][dL][dF][dR][d1Nal][dQ][dA][dK][d1Nal]-NH2), the “Central compartment volume of distribution” value in data set [6] was around 0.12 L/kg. In data set [6], this compound returned an alpha half-life of around 2 min. Further, the beta half-life in data set [6] was around 45 min. Also, the clearance in data set [6] was around 6 mL/min/kg. For the same compound, the “plasma concentrations by 24 hours following dosing” value in data set [6] is reported as “approximately 0.005 μg/mL”. In addition, the terminal half-life in data set [6] is around 480 min. The average half-life entry in data set [6] (three compartment model) was “approximately 0.24 hours”. In addition, the AUC0-tlast in data set [7] (Adrenal) came out at 64.98 μg equivalents * hr/g; in data set [7] (Blood), 0.24 μg equivalents * hr/g; in data set [7] (Bone marrow), 82.65 μg equivalents * hr/g; in data set [7] (Cervical lymph node), 86.07 μg equivalents * hr/g; in data set [7] (Eye uveal tract), 1.14 μg equivalents * hr/g; in data set [7] (Kidney) it was 20.20 μg equivalents * hr/g. In addition, the AUC0-tlast in [7] (Liver) was 191.86 μg equivalents * hr/g; in [7] (Lung), 29.25 μg equivalents * hr/g; in data set [7] (Popliteal lymph node), 165.30 μg equivalents * hr/g; in data set [7] (Renal medulla high), 19.83 μg equivalents * hr/g; in [7] (Spleen) it was 60.94 μg equivalents * hr/g; in data set [7] (Thyroid) it was 23.38 μg equivalents * hr/g.
In the case of Neomycin, the “MBC (antibiotic alone)” value against E. coli (E. coli 4104 LF) and in the data set with Staphylococcus aureus (Staphylococcus aureus 342U-116) was 1 µg/mL throughout.
Penicillin: the MBC against E. coli (E. coli 706U2-1081) is above 10 µg/mL; in the data set with E. coli (E. coli 4104 LF), above 10 µg/mL; with Staphylococcus aureus (Staphylococcus aureus 076U-550) it was below 0.06 µg/mL; in the data set on Staphylococcus aureus (Staphylococcus aureus 230U-579) it was above 10 µg/mL; against Staphylococcus aureus (Staphylococcus aureus 314U-148) it was above 10 µg/mL; against Staphylococcus aureus (Staphylococcus aureus 342U-116) it was above 10 µg/mL. In addition, in the data set on Staphylococcus aureus (Staphylococcus aureus 15031-1857), the minimal bactericidal concentration (MBC) was above 10 µg/mL.
